Test results as given in patent publication US6911442B1, “Quinoline derivatives as antibacterials” (SmithKline Beecham p.l.c., priority 1999, dated 2005).
Like-named read-outs stand apart in the source and are kept apart here.

Test system: S. aureus Oxford, S. aureus WCUH29, S. aureus Carter 37, E. faecalis I, M. catarrhalis Ravasio, S. pneumoniae R6
Test: MIC of test compounds against various organisms
Format: cell-based
Conditions: against one or more of S. aureus Oxford
Protocol: The MIC (μg/ml) of test compounds against various organisms was determined: S. aureus Oxford, S. aureus WCUH29, S. aureus Carter 37, E. faecalis I, M. catarrhalis Ravasio, S. pneumoniae R6.

MIC (read-out: MIC) [µg/mL] | MIC | SMILES
≤ 16 | – | COc1ccc2nccc([C@@H](O)CN3CCN(CCCOc4ccccc4)CC3)c2c1 [Example 33, 1-(3-phenoxypropyl)-4-[2-(R)-hydroxy-2-(6-methoxyquinolin-4-yl)ethyl]piperazine]
– | less than or equal to 1 μg/ml | CCCCCCCN1CCN(CC(O)c2ccnc3ccc(OC)cc23)[C@@H](CCO)C1.O=C(O)C(=O)O.O=C(O)C(=O)O (stereo partly drawn) [Example 12, [3S]-1-Heptyl-3-[2-hydroxyetbyl]-4-[2-(R,S)hydroxy-2-(6-methoxyquinolin-4-yl)ethyl]piperazine dioxalate]
≤ 16 | – | CCCCCCCN1CCN(C[C@H](O)c2ccnc3ccc(OC)cc23)[C@H](CC(=O)O)C1.O=C(O)C(F)(F)F.O=C(O)C(F)(F)F.O=C(O)C(F)(F)F [Example 11, [3R]-3-Carboxymethyl-1-heptyl-4-[2-(R)-hydroxy-2-(6-methoxyquinolin-4-yl)ethyl]piperazine tris(trifluoroacetate)]
